Reference: US11407741B2, “Compounds and their use as selective inhibitors of caspase-2” (priority 2017, dated 2022)
Where a SMILES comes first, the peptide text is derived from it. [ ]: non-standard residue; d: D form. The star is where a group is joined. Pro(3S-CH2tBu) = CC(C)(C)C[C@H]1CCN[C@@H]1C(=O)O; X4 = CN(Cc1ccccc1)C(=O)/C=C/C(=O)N(CC(=O)O)N*; X3 = O=C(O)CN(N*)C(=O)COc1c(F)cccc1F; Quinaldoyl = O=C(c1ccc2ccccc2n1)*; X1 = c1ncc(CO*)s1

Experiments:
[1] = target: T1, Caspase-2 (Homo sapiens, UniProt P42575); assay: Caspase-2 inhibition assay for irreversible inhibitors (kinact/KI, continuous method); assay type: biochemical; conditions: for Selectivity for Caspase 2: comparison of kinact/KI ratios regarding caspase 2 and 3
T1 construct: the Caspase-2 and Caspase-3 are human recombinant active enzymes; purchased Enzo Life ALX-201-057-U100
T1 sequence (P42575 170-325 limits assumed): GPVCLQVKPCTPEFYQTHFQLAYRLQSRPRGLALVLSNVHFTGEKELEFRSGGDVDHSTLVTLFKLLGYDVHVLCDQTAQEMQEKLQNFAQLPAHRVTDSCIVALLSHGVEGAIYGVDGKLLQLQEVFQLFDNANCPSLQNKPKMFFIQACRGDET
T1 sequence (P42575 348-452 limits assumed): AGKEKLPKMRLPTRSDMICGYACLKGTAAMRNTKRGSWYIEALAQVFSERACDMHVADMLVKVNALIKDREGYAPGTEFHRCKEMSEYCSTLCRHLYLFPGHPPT
Method: The efficiency of the comparative compound Δ2Me-TRP601, that is an already known group II Caspase inhibitor (inhibitor of Caspase-2, Caspase-3 and Caspase-7), has been assessed by a similar protocol described in Chauvier et al., 2011 Cell Death Dis 2011, 2:e203.
In this example, the Caspase-2 and Caspase-3 are human recombinant active enzymes that are respectively provided by Enzo Life® (ALX-201-057-U100) and R&D Systems® (707-C3-010/CF).
Caspase-2 is used at a final concentration of 0.1 nM in a “Caspase-2 buffer” containing 20 mM HEPES (pH 7.4), 5 mM DTT, 2 mM EDTA, 0.1% CHAPS and 800 mM succinate. Caspase-3 is used at a final concentration of 0.5 nM in a “Caspase-3 buffer” containing 20 mM HEPES (pH 7.4), 0.1% CHAPS, 5 mM DTT, and 2 mM EDTA.
The peptide substrates used for the enzymatic activity measurements are Ac-DEVD-AMC and Ac-VDVAD-AMC commercialized by EnzoLife® (respectively referenced ALX-260-031-M005 and ALX-260-060-M005). They are fluorogenic due to the presence of their AMC (7-amino-4-methylcoumarin) end group. The releasing of AMC enables to follow the enzymatic activity in fluorescence unit RFU over time in a 96-wells microplate.
The fluorescence values are measured at 37° C. with a spectrofluorometer with a microplate reader BMG FLUOstar OPTIMA. This apparatus is driven by the software Biolise® and is equipped with thermoelectric cooling device by Peltier effect. The mathematical analyses of the experimental data are done with the software Kaleidagraph®.
The inhibitory properties of the tested compounds are evaluated by the determination of the kinact/KI ratio regarding either Caspase-2 or Caspase-3 wherein: • kinact is the maximal inactivation rate constant, and • KI is the dissociation constant according to:
Said ratio is measured according to the continuous method (Allison R D. Curr Protoc Protein Sci. 2001 May; Chapter 3:Unit 3.5.; Chauvier et al., 2011 Cell Death Dis 2:e203; Tan et al., J Med Chem 2015, […]).
Briefly, Caspases activities were determined by monitoring the hydrolysis of fluorogenic substrates (λexc=355 nm, λem=460 nm) as a function of time, in the presence of untreated Caspases (control) or Caspases that had been incubated with a test compound, for 30 min minimum at 37° C. using a BMG Fluostar microplate reader (black 96-well microplates) and the initial velocity (V0) was determined from the linear portion of the progress curve.
Substrates and compounds were previously dissolved in DMSO at 10 mM, with the final solvent concentration kept at lower 4% (v/v). V0, relative velocities, KM and IC50 were determined from experimental data using Mars data Analysis 2.0 and Kaleidagraph softwares.
Inhibitor binding affinity (dissociation constant, KI) and first-order rate constant (k3) parameters were determined for Caspase-2 and Caspase-3 using the progress curve method. The ratio k3/KI was obtained by fitting the experimental data to the equations (F.U., fluorescence unit): […]
A continuous method of determination of the kinact/KI ratio was used for evaluating the inhibitory activity of the tested compounds against Caspase-2 and Caspase-3.
The reaction mixture is prepared by letting the enzyme and the buffer incubate at 37° C.
The tested inhibitory compounds are prepared at different concentrations (¼ IC50; ½ IC50; IC50; 2 IC50; 4 IC50) and put in the microplate.
Then the reaction mixture comprising the enzyme, the buffer and the substrate is rapidly added in the wells.
The activities of the enzyme are measured between 45 and 60 minutes.
The RFU (Relative Fluorescence Units)=f(times) curves are traced for each concentration of tested molecule according to the following equation: ((((−V0)*(exp(−kobs*m0)))+V0)/kobs*)+RFU0
in which: • V0 corresponds to the initial rate (RFU·s^−1) in the concentration of 0 of the tested inhibitory compound; • kobs is the inactivation rate constant; • RFU0 is the fluorescence value at t=0 min; and • m0 is the variable i.e. the inhibitor concentration.

[2] = target: T2, Casp-2 (Homo sapiens, UniProt P42575); assay: Caspase-2 inhibition assay for reversible inhibitors (IC50, Ki, dilution method); assay type: biochemical
T2 construct: the Caspase-2 and Caspase-3 are human recombinant active enzymes; purchased Enzo Life ALX-201-057-U100
T2 sequence (P42575 170-325 limits assumed): T1 sequence (P42575 170-325 limits assumed)
T2 sequence (P42575 348-452 limits assumed): T1 sequence (P42575 348-452 limits assumed)
Method: A preliminary step in the characterization of an inhibitor is the determination of its IC50. The IC50 is the necessary concentration of an inhibitor to decrease the enzyme activity by 50% of its maximum and uninhibited value.
The compound, at different concentrations, is incubated with the enzyme and buffer for 30 minutes at 37° C. to allow formation of the Enzyme-Inhibitor complex. The reaction is initiated by addition of buffer and substrate, and then activity is measured over 15 minutes for the determination of initial velocities.
The enzyme and the inhibitor (or DMSO as control) are incubated for 30 minutes at 37° C. The complex thus formed is diluted to 100th in the buffer/substrate mixture and then the activity measurement is started over 20 minutes. The initial rate obtained for the DMSO represents the 100% activity and will serve as a reference for the quantification of the residual activity of the enzyme in the presence of the inhibitor.
The reaction is started over 20 minutes upon addition of the buffer-substrate mixture.
Initial velocity values in RFU·min^−1 are reduced to Specific Activity (SA)values (pmol/min/μg enzyme) from an AMC standard range (1 RFU→0.02 pmol).
The evolution of the ratio 1/SA as a function of 1/[S] makes it possible to obtain the so-called double-inverse graph of Lineweaver-Burk from equation 4 (eq.4) where Vmaxapp and KMapp are the parameters which vary according to the type inhibition and as a function of inhibitor concentration. The intersection of the lines obtained for increasing inhibitor concentrations makes it possible to distinguish different types of inhibitors.
A secondary graph, obtained from the values of the slopes of the Lineweaver-Burk plot as a function of the concentration of inhibitor, makes it possible to obtain the value of the Ki. Its value is given by the abscissa point at the origin.
The initial velocity V0 is expressed from equation 8 (eq.8), where Vmax is the maximum reaction rate (reached when the enzyme is saturated with substrate), [S] the substrate concentration, KM is the Michaelis-Menten constant (substrate concentration corresponding to Vmax/2), Ki is the dissociation constant which accounts for the affinity of the inhibitor for the enzyme.

| SMILES | type of inhibition (irreversible) [1] | Selectivity for Caspase 2 [1] | other results |
| --- | --- | --- | --- |
| CC(C)[C@H](NC(=O)c1ccc2ccccc2n1)C(=O)N[C@@H](CC(=O)O)C(=O)N[C@H](C(=O)N1CC[C@H](CC(C)(C)C)[C@H]1C(=O)NN(CC(=O)O)C(=O)/C=C/C(=O)N(C)Cc1ccccc1)C(C)C [Compound 5, (S)-4-(((S)-1-((2S,3S)-2-(2-((E)-4-(benzyl(methyl)amino)-4-oxobut-2-enoyl)-2-(carboxymethyl)hydrazinecarbonyl)-3-neopentylpyrrolidin-1-yl)-3-methyl-1-oxobutan-2-yl)amino)-3-((S)-3-methyl-2-(quinoline-2-carboxamido)butanamido)-4-oxobutanoic acid] (Quinaldoyl-VDV[Pro(3S-CH2tBu)]-X4) | irreversible inhibitor | yes |  |
| CC(C)[C@H](NC(=O)c1ccc2ccccc2n1)C(=O)N[C@@H](CC(=O)O)C(=O)N[C@H](C(=O)N1CC[C@H](CC(C)(C)C)[C@H]1C(=O)N[C@@H](CC(=O)O)C(=O)OCc1cncs1)C(C)C [Compound 3, (S)-4-(((S)-1-((2S,3S)-2-(((S)-3-carboxy-1-oxo-1-(thiazol-5 - ylmethoxy)propan-2-yl)carbamoyl)-3-neopenthylpyrrolidin-1-yl)-3-methyl-1-oxobutan-2-yl)amino)-3-((S)-3-methyl-2-(quinoline-2-carboxamido)butanamido)-4-oxobutanoic acid] (Quinaldoyl-VDV[Pro(3S-CH2tBu)]D-X1) |  |  | Selectivity Indexes (KiCasp3/KiCasp2) [2]: >>1000; potency on Casp-2 [2]: still powerful on Casp-2; type of inhibition (reversible), dilution method [2]: reversible inhibitor; Casp-2 selectivity ([2]; from IC50 on Casp-2 and Caspase-3): Casp2-selective |
| CC(C)[C@H](NC(=O)[C@H](CC(=O)O)NC(=O)C(=O)Nc1ccccc1C(C)(C)C)C(=O)N1CC[C@H](CC(C)(C)C)[C@H]1C(=O)NN(CC(=O)O)C(=O)COc1c(F)cccc1F [Compound 6, (S)-3-(2-((2-(tert-butyl)phenyl)amino)-2-oxoacetamido)-4-(((S)-1-((2S,3S)-2-(2-(carboxymethyl)-2-(2-(2,6-difluorophenoxy)acetyl)hydrazinecarbonyl)-3-neopentylpyrrolidin-1-yl)-3-methyl-1-oxobutan-2-yl)amino)-4-oxobutanoic acid] | irreversible inhibitor | yes |  |
| CC(C)[C@H](NC(=O)c1ccc2ccccc2n1)C(=O)N[C@@H](CC(=O)O)C(=O)N[C@H](C(=O)N1CC[C@H](CC(C)(C)C)[C@H]1C(=O)NN(CC(=O)O)C(=O)COc1c(F)cccc1F)C(C)C [Compound 4, (S)-4-(((S)-1-((2S,3S)-2-(2-(carboxymethyl)-2-(2-(2,6-difluorophenoxy)acetyl)hydrazinecarbonyl)-3-neopentylpyrrolidin-1-yl)-3-methyl-1-oxobutan-2-yl)amino)-3-((S)-3-methyl-2-(quinoline-2-carboxamido)butanamido)-4-oxobutanoic acid] (Quinaldoyl-VDV[Pro(3S-CH2tBu)]-X3) | irreversible inhibitor | yes |  |
| CC(C)[C@H](NC(=O)c1ccc2ccccc2n1)C(=O)N[C@@H](CC(=O)O)C(=O)N[C@H](C(=O)N1CC[C@H](CC(C)(C)C)[C@H]1C(=O)N[C@@H](CC(=O)O)C(=O)COc1c(F)cccc1F)C(C)C (single isomer, unassigned) [Compound 2 enantiomer a] |  |  | k3/KI Casp2 ([1]; human recombinant Caspase-2 0.1 nM, 37° C.): 1 894 076 M^−1 · s^−1; Selectivity ratio (C2/C3) ([1]; ratio of k3/KI Casp2 to Casp3): 721 |
